Measured values reported in PMC6581720 (Frontiers in Microbiology, 2019).

Target: T1, SpoIVB (sporulation factor IV B protease) (Bacillus subtilis, UniProt P17896, S378A)
T1 construct: truncated SpoIVB (residues Thr75-Ser426), N-terminal 6 × His and mMBP fusion tags
Assay: microscale thermophoresis (MST), RED-NHS labelled protein
Type: binding

T1 sequence (P17896 75-426 S378A): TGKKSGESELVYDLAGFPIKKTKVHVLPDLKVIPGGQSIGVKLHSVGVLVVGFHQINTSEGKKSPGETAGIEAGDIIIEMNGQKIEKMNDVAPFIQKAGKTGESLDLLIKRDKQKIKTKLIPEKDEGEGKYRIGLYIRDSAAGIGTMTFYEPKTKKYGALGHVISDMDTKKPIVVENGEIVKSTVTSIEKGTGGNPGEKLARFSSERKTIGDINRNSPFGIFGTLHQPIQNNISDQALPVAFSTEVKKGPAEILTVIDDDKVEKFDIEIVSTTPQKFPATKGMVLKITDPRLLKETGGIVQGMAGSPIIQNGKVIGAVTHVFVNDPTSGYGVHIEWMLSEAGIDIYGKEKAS

N=C(N)c1ccccc1 [benzamidine]
Kd: 660 ± 28 µM
